According to PubChem BioAssay AID328 (DTP/NCI, 2004):
Values joined by “and” are separate entries in the source; they are usually repeats but may differ in a detail not shown here. Equal entries are not always repeated. Inconclusive results and toxic doses are left out.

Test system: BDF1 mice, P388 leukemia ip, median survival T/C
Test: NCI In Vivo Anticancer Drug Screen. Data for tumor model P388 Leukemia (intraperitoneal) in B6D2F1 (BDF1) mice
Details: endpoint: median survival time, higher = longer survival
Procedure, shortened: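 Compound-treated tumour-bearing mice were compared with vehicle-treated controls. Survival was recorded, and the value is the treated-group measurement divided by the control-group measurement (T/C).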

[1] = dose: 6.25 mg/kg/injection, schedule: Q01DX009 (ip), vehicle: saline with Tween-80
[2] = dose: 12.5 mg/kg/injection, schedule: Q01DX009 (ip), vehicle: saline with Tween-80
[3] = dose: 25.0 mg/kg/injection, schedule: Q01DX009 (ip), vehicle: saline with Tween-80
[4] = dose: 50.0 mg/kg/injection, schedule: Q01DX009 (ip), vehicle: saline with Tween-80
[5] = dose: 100.0 mg/kg/injection, schedule: Q01DX001 (ip), vehicle: saline with Tween-80
[6] = dose: 200.0 mg/kg/injection, schedule: Q01DX001 (ip), vehicle: saline with Tween-80
[7] = dose: 100.0 mg/kg/injection, schedule: Q04DX003 (ip), vehicle: saline with Tween-80
[8] = dose: 200.0 mg/kg/injection, schedule: Q04DX003 (ip), vehicle: saline with Tween-80
[9] = dose: 400.0 mg/kg/injection, schedule: Q04DX003 (ip), vehicle: saline with Tween-80
[10] = dose: 100.0 mg/kg/injection, schedule: Q04DX003 (ip), vehicle: Klucel (hydroxypropylcellulose) (HPC)
[11] = dose: 200.0 mg/kg/injection, schedule: Q04DX003 (ip), vehicle: Klucel (hydroxypropylcellulose) (HPC)
[12] = dose: 1.56 mg/kg/injection, schedule: Q01DX009 (ip), vehicle: saline with Tween-80
[13] = dose: 3.13 mg/kg/injection, schedule: Q01DX009 (ip), vehicle: saline with Tween-80
[14] = dose: 100.0 mg/kg/injection, schedule: Q01DX009 (ip), vehicle: saline with Tween-80
[15] = dose: 200.0 mg/kg/injection, schedule: Q01DX009 (ip), vehicle: saline with Tween-80
[16] = dose: 400.0 mg/kg/injection, schedule: Q01DX009 (ip), vehicle: saline with Tween-80

For `CSc1nc2n(Cc3c[nH]c(=O)[nH]c3=O)cc(C)cc-2c(=O)n1`, the T/C [1] was 101 % of control, the T/C [2] was 102 % of control and the T/C [3] was 95 % of control. For the same compound, the T/C [4] was 93 % of control, the T/C [5] was 113 % of control and the T/C [6] was 106 % of control.

With `C=C(C)C1CC=C(/C=N/O)CC1` (stereo not drawn) the T/C [7] was 100 % of control, the T/C [8] was 100 % of control and the T/C [9] was 95 % of control.

For `CNC(=N)c1ccc(NC(=N)c2ccc(NC(=N)c3ccc(NC(=O)Nc4ccc(C(=N)NC)cc4)cc3)cc2)cc1`, the T/C (dose: 1.1 mg/kg/injection, schedule: Q04DX003 (ip), vehicle: saline) was 122 % of control, the T/C (dose: 2.4 mg/kg/injection, schedule: Q01DX009 (ip), vehicle: saline) was 170 % of control and the T/C (dose: 3.6 mg/kg/injection, schedule: Q01DX009 (ip), vehicle: saline) was 187 % of control. The T/C (dose: 5.0 mg/kg/injection, schedule: Q01DX009 (ip), vehicle: saline) was 154 % of control and 157 % of control, the T/C (dose: 5.3 mg/kg/injection, schedule: Q01DX009 (ip), vehicle: saline) was 195 % of control and the T/C (dose: 5.3 mg/kg/injection, schedule: Q04DX003 (ip), vehicle: saline) was 154 % of control. The T/C (dose: 6.25 mg/kg/injection, schedule: Q01DX009 (ip), vehicle: saline) was 161 % of control, the T/C (dose: 8.0 mg/kg/injection, schedule: Q01DX009 (ip), vehicle: saline) was 165 % of control and the T/C (dose: 12.0 mg/kg/injection, schedule: Q01DX009 (ip), vehicle: saline) was 188 % of control. The T/C (dose: 12.0 mg/kg/injection, schedule: Q04DX003 (ip), vehicle: saline) was 154 % of control, the T/C (dose: 12.5 mg/kg/injection, schedule: Q01DX009 (ip), vehicle: saline) was 230 % of control and the T/C (dose: 18.0 mg/kg/injection, schedule: Q01DX009 (ip), vehicle: saline) was 230 % of control. For the same compound, the T/C (dose: 18.0 mg/kg/injection, schedule: Q04DX003 (ip), vehicle: saline) was 187 % of control and the T/C (dose: 25.0 mg/kg/injection, schedule: Q04DX003 (ip), vehicle: saline) was 250 % of control.

`NC(=S)c1cn(C2OC(CO)C(O)C2O)c2ncnc(N)c12` (stereo not drawn) was tested, and the T/C (dose: 3.3 mg/kg/injection, schedule: Q01DX009 (ip), vehicle: saline with Tween-80) was 166 % of control and the T/C (dose: 5.0 mg/kg/injection, schedule: Q01DX009 (ip), vehicle: saline with Tween-80) was 100 % of control.

`Cc1ccc(Cl)cc1NC(=O)c1ccccc1C(=O)O` was tested, and the T/C [10] was 91 % of control, the T/C [11] was 95 % of control and the T/C (dose: 400.0 mg/kg/injection, schedule: Q04DX003 (ip), vehicle: Klucel (hydroxypropylcellulose) (HPC)) was 91 % of control.

In the case of `Nc1nc(N)c2nc(CNc3ccc(C(=O)NC(CCC(=O)O)C(=O)O)cc3)cnc2n1` (stereo not drawn), the T/C (dose: 0.03 mg/kg/injection, schedule: Q01DX010 (ip), vehicle: other) is reported as 90 % of control and 104 % of control, the T/C (dose: 0.05 mg/kg/injection, schedule: Q01DX010 (ip), vehicle: other) is reported as 109 % of control and 115 % of control and the T/C (dose: 0.1 mg/kg/injection, schedule: Q01DX010 (ip), vehicle: other) is reported as 118 % of control. The T/C (dose: 0.2 mg/kg/injection, schedule: Q01DX010 (ip), vehicle: other) was 163 % of control and 175 % of control.

`CC1([CH2][Hg][I])CS(=O)(=O)CC(C)([CH2][Hg][I])O1` (stereo not drawn) was tested, and the T/C (dose: 5.0 mg/kg/injection, schedule: Q01DX010 (ip), vehicle: carboxymethylcellulose (CMC)) was 104 % of control and the T/C (dose: 10.0 mg/kg/injection, schedule: Q01DX010 (ip), vehicle: carboxymethylcellulose (CMC)) was 109 % of control.

In the case of `CCCC[S+](CCCC)CC(=O)c1ccc(-c2ccccc2)cc1`, the T/C [12] is reported as 105 % of control, the T/C [13] is reported as 100 % of control and the T/C [1] is reported as 106 % of control. For the same compound, the T/C [2] was 107 % of control and the T/C [3] was 113 % of control.

In the case of `CC(=O)Oc1ccc(/C=N/NC(N)=S)nc1`, the T/C (dose: 0.18 mg/kg/injection, schedule: Q01DX009 (ip), vehicle: saline with Tween-80) is reported as 123 % of control, the T/C (dose: 0.27 mg/kg/injection, schedule: Q01DX009 (ip), vehicle: saline with Tween-80) is reported as 116 % of control and the T/C (dose: 0.4 mg/kg/injection, schedule: Q01DX009 (ip), vehicle: saline with Tween-80) is reported as 176 % of control. The T/C (dose: 0.6 mg/kg/injection, schedule: Q01DX009 (ip), vehicle: saline with Tween-80) was 123 % of control, the T/C (dose: 44.0 mg/kg/injection, schedule: Q01DX009 (ip), vehicle: saline with Tween-80) was 177 % of control and the T/C (dose: 66.0 mg/kg/injection, schedule: Q01DX009 (ip), vehicle: saline with Tween-80) was 200 % of control. The T/C [14] was 177 % of control and 220 % of control, the T/C [7] was 107 % of control and the T/C (dose: 150.0 mg/kg/injection, schedule: Q01DX009 (ip), vehicle: saline with Tween-80) was 90 % of control. The T/C [15] was 105 % of control, the T/C [8] was 111 % of control and the T/C [9] was 115 % of control.

In the case of `COC(=O)C1=C(C(=O)OC)C(C(=O)OC)N2C=C(C)C=CC2=C1C(=O)OC` (stereo not drawn), the T/C [4] is reported as 102 % of control, the T/C [14] is reported as 100 % of control and the T/C [15] is reported as 98 % of control.

With `CCOC(=O)c1c(N)sc2c1CCCCC2` the T/C [14] was 100 % of control, the T/C [15] was 95 % of control and the T/C [16] was 110 % of control.

For `O=Cc1ccc(N2CCCCC2)cc1`, the T/C [10] was 91 % of control and the T/C [11] was 95 % of control.

For `Cc1c(N)cc([N+](=O)[O-])c(C)c1[N+](=O)[O-]`, the T/C [4] was 95 % of control and the T/C [14] was 90 % of control.

With `Cc1nc(N)c(N)nc1C` the T/C [2] was 95 % of control, the T/C [3] was 88 % of control and the T/C (dose: 25.0 mg/kg/injection, schedule: Q04DX003 (ip), vehicle: saline with Tween-80) was 102 % of control. For the same compound, the T/C [4] was 107 % of control and the T/C (dose: 50.0 mg/kg/injection, schedule: Q04DX003 (ip), vehicle: saline with Tween-80) was 101 % of control.

In the case of `CCOC(=O)Nc1cc(NC(c2ccccc2)c2ccccc2)c2[nH]cnc2n1`, the T/C (dose: 15.0 mg/kg/injection, schedule: Q04DX003 (ip), vehicle: saline with Tween-80) is reported as 87 % of control and the T/C (dose: 60.0 mg/kg/injection, schedule: Q04DX003 (ip), vehicle: saline with Tween-80) is reported as 108 % of control.

`COc1ccc(OC)c(/C=N/N=C/c2cc(OC)ccc2OC)c1` was tested, and the T/C [5] was 104 % of control, the T/C [6] was 100 % of control and the T/C (dose: 400.0 mg/kg/injection, schedule: Q01DX001 (ip), vehicle: saline with Tween-80) was 104 % of control.

For `COP(=S)(NC(C)C)Oc1ccc(C)cc1[N+](=O)[O-]` (stereo not drawn), the T/C [12] was 106 % of control, the T/C [13] was 89 % of control and the T/C [1] was 97 % of control. For the same compound, the T/C [2] was 100 % of control.

With `O=[N+]([O-])c1ccc(S(=O)c2ccc([N+](=O)[O-])c3no[n+]([O-])c23)cc1` (stereo not drawn) the T/C (dose: 10.0 mg/kg/injection, schedule: Q01DX009 (ip), vehicle: saline with Tween-80) was 104 % of control, the T/C (dose: 20.0 mg/kg/injection, schedule: Q01DX009 (ip), vehicle: saline with Tween-80) was 100 % of control and the T/C (dose: 40.0 mg/kg/injection, schedule: Q01DX009 (ip), vehicle: saline with Tween-80) was 102 % of control.

For `c1ccc(C2=NC(CCN3CCCCC3)(c3ccccc3)SC2CN2CCCCC2)cc1` (stereo not drawn), the T/C (dose: 50.0 mg/kg/injection, schedule: Q01DX005 (ip), vehicle: Klucel (hydroxypropylcellulose) (HPC)) was 101 % of control, the T/C (dose: 100.0 mg/kg/injection, schedule: Q01DX005 (ip), vehicle: Klucel (hydroxypropylcellulose) (HPC)) was 105 % of control and the T/C (dose: 200.0 mg/kg/injection, schedule: Q01DX005 (ip), vehicle: Klucel (hydroxypropylcellulose) (HPC)) was 104 % of control.

For `Cc1c(Cl)c(Cl)c(Cl)c(Cl)c1Cl`, the T/C [14] was 118 % of control, the T/C [7] was 104 % of control and the T/C [15] was 95 % of control. For the same compound, the T/C [8] was 104 % of control, the T/C [16] was 95 % of control and the T/C [9] was 95 % of control.

For `Cc1ccc(S(=O)(=O)Nc2ccccc2SSc2ccccc2NS(=O)(=O)c2ccc(C)cc2)cc1`, the T/C [7] was 100 % of control, the T/C [8] was 110 % of control and the T/C [9] was 110 % of control.

In the case of `[Cl][Co][Cl].[NH-]CC[NH-].[NH-]CC[NH-]`, the T/C (dose: 25.0 mg/kg/injection, schedule: Q04DX002 (ip), vehicle: saline) is reported as 100 % of control, the T/C (dose: 50.0 mg/kg/injection, schedule: Q04DX002 (ip), vehicle: saline) is reported as 109 % of control and the T/C (dose: 100.0 mg/kg/injection, schedule: Q04DX002 (ip), vehicle: saline) is reported as 104 % of control and 111 % of control.
